Laboratory results taken from the NIST ThermoML archive (doi:10.1016/j.jct.2012.11.017).
Numbers after ± are expanded uncertainties.

Assay: xn = mol fraction of the nth substance listed
Settings: Liquid, Vibrating tube method

CCCCCCCCCC [decane] + CCO
mass density [kg/m3]
Settings	x2 = 0.25	x2 = 0.5	x2 = 0.75
303.2 K, 100 kPa	726.4 ± 0.3	732.8 ± 0.3	746.3 ± 0.3
303.2 K, 1000 kPa	727.2 ± 0.3	733.7 ± 0.3	747.2 ± 0.3
303.2 K, 2000 kPa	728 ± 0.3	734.5 ± 0.3	748.1 ± 0.3
303.2 K, 3000 kPa	728.8 ± 0.3	735.4 ± 0.3	749 ± 0.3
303.2 K, 4000 kPa	729.6 ± 0.3	736.3 ± 0.3	749.8 ± 0.3
303.2 K, 5000 kPa	730.4 ± 0.4	737.1 ± 0.3	750.7 ± 0.3
303.2 K, 6000 kPa	731.3 ± 0.4	738 ± 0.4	751.6 ± 0.3
303.2 K, 7000 kPa	732.1 ± 0.4	738.8 ± 0.4	752.4 ± 0.3
303.2 K, 8000 kPa	732.9 ± 0.4	739.7 ± 0.4	753.3 ± 0.3
303.2 K, 9000 kPa	733.7 ± 0.4	740.5 ± 0.4	754.1 ± 0.3
303.2 K, 10000 kPa	734.5 ± 0.4	741.3 ± 0.4	755 ± 0.3
323.2 K, 100 kPa	709.6 ± 0.3	715.8 ± 0.3	728.5 ± 0.3
323.2 K, 1000 kPa	710.3 ± 0.3	716.7 ± 0.3	729.5 ± 0.3
323.2 K, 2000 kPa	711.2 ± 0.3	717.7 ± 0.3	730.6 ± 0.3
323.2 K, 3000 kPa	712.2 ± 0.3	718.6 ± 0.3	731.5 ± 0.3
323.2 K, 4000 kPa	713.1 ± 0.4	719.6 ± 0.3	732.6 ± 0.3
323.2 K, 5000 kPa	714 ± 0.4	720.5 ± 0.3	733.5 ± 0.3
323.2 K, 6000 kPa	714.9 ± 0.4	721.5 ± 0.3	734.5 ± 0.3
323.2 K, 7000 kPa	715.8 ± 0.4	722.4 ± 0.3	735.4 ± 0.3
323.2 K, 8000 kPa	716.8 ± 0.4	723.3 ± 0.4	736.4 ± 0.3
323.2 K, 9000 kPa	717.7 ± 0.4	724.2 ± 0.4	737.4 ± 0.4
323.2 K, 10000 kPa	718.6 ± 0.4	725.2 ± 0.4	738.4 ± 0.4
